Laboratory results published in patent US10100052B2, “Compounds for the treatment of hepatitis B virus infection” (Gilead Sciences, Inc., priority 2016, dated 2018).

Columns and labels:
HBsAg = assay: PHH assay for inhibition of HBsAg; type: cell-based, genotype D (AD38-derived) HBV in primary human hepatocytes; details: Hepatitis B virus, 288 h, read-out: HBsAg EC50
Experimental: Primary human hepatocytes (PHH) (Bioreclamation IVT) were plated on collagen-coated flasks using Plating Media (Life Technologies) containing William's Medium E supplemented with 1% penicillin/streptomycin, 4 μg/mL human recombinant insulin, 2 mM GlutaMAX, 15 mM HEPES, 1 μM dexamethasone, 5% fetal bovine serum, and 0.2% Torpedo Antibiotic Mix (Bioreclamation IVT). After a 4-hour incubation at 37° C., cells were switched to Maintenance Media (Life Technologies) containing William's Medium E supplemented with 0.5% penicillin/streptomycin, 6.25 µg/mL human recombinant insulin, 6.25 μg/mL human transferrin, 6.25 ng/mL selenous acid, 1.25 mg/mL bovine serum albumin, 5.35 μg/mL linoleic acid, 2 mM GlutaMAX, 15 mM HEPES, 0.1 μM dexamethasone, 2% fetal bovine serum, 2% DMSO, and 0.2% Torpedo Antibiotic Mix (Bioreclamation IVT). On the next day, PHH were infected with 500 genome equivalent per cell of genotype D (AD38-derived) HBV in Maintenance Media supplemented with 4% PEG 8000 (Promega). After 24 hour incubation, cells were washed three times with William's Medium E and fed with fresh Maintenance Media. At 3 days after infection, infected PHH cells were seeded on 96-well plates pre-coated with collagen at a density of 65000 cells per well containing serially diluted solutions of certain compounds disclosed herein or DMSO (1% final concentration) in a final volume of 125 μl of Maintenance Media (Life Technologies) containing William's Medium E supplemented with 0.5% penicillin/streptomycin, 6.25 μg/mL human recombinant insulin, 6.25 μg/mL human transferrin, 6.25 ng/mL selenous acid, 1.25 mg/mL bovine serum albumin, 5.35 μg/mL linoleic acid, 2 mM GlutaMAX, 15 mM HEPES, 0.1 μM dexamethasone, 5% fetal bovine serum, 1 mM 1-amininobenzotriaole, and 0.2% Torpedo Antibiotic Mix (Bioreclamation IVT). Media with compounds was replenished every 2-3 days. After an incubation time of 12 days, secreted HBsAg in the supernatant were measured using a multiplex chemiluminescent (Mesoscale discovery, MSD) assay using capture and detection antibody pairs specific for HBsAg. Comparative Example 1 and Comparative Example 2 have the following structures and were prepared according to International Publication No. WO 2015/113990.

MT-4 cytotoxicity assay = type: cell-based; details: human, five days incubation, Cell Titer Glo
Experimental: The MT-4 cell line (HTLV-1 transformed, human T lymphoblastoid cells) was obtained from the NIH AIDS Reagent program (Bethesda, Md.). MT-4 cells were maintained in RPMI-1640 supplemented with 10% fetal bovine serum (FBS, Hyclone, Logan, Utah). All cell culture media were also supplemented with 100 Units/mL penicillin, 100 μg/mL streptomycin (Gibco). For the MT-4 cytotoxicity assay, 0.4 μL of serially diluted solutions of certain compounds disclosed herein were added to 40 μL of cell maintenance media in 384-well black, solid bottom plate using a Biomek FX workstation (Beckman Coulter). Two thousand cells in 35 μL were added to each well using a Biotek uFlow Workstation (Biotek). Each assay plate contained 10 μM puromycin (final concentration) and 0.5% DMSO in RPMI-1640 as positive and negative controls, respectively. Assay plates were incubated for five days at 37° C. in an incubator set at 5% CO2 and 90% humidity. After five days, 22 μL of Cell Titer Glo reagent (Promega) was added to the assay plates with a Biotek uFlow Workstation. Plates were subsequently placed on a Perkin Elmer Envision Plate Reader for five minutes before the luminescence signal was read. CC50 values were calculated by non-linear regression using Pipeline Pilot software by applying a four parameter fit equation (Accelrys, San Diego, Calif.) and are reported in the following Table 2.

Compound | EC50 (HBsAg) [nM] | CC50 at 5 days (MT-4 cytotoxicity assay) [nM] | CC50 at 5 days (MT-4 cytotoxicity assay; MT-4 cells) [nM]
COCCCOc1cc2c(cc1Cl)-c1cc(=O)c(C(=O)O)cn1N(C)C2 [Example 1, 10-chloro-9-(3-methoxypropoxy)-6-methyl-2-oxo-6,7-dihydro-2H-pyrido[2,1-a]phthalazine-3-carboxylic acid] | 363 | 8900 | –
COCCCOc1cc2c(cc1Cl)-c1cc(=O)c(C(=O)O)cn1N(C1(C(F)(F)F)CC1)C2 [Example 3, 10-chloro-9-(3-methoxypropoxy)-2-oxo-6-(1-(trifluoromethyl)cyclopropyl)-6,7-dihydro-2H-pyrido[2,1-a]phthalazine-3-carboxylic acid] | 3.1 | – | > 10000
COCCCOc1cc2c(cc1Cl)-c1cc(=O)c(C(=O)O)cn1N(C1(C(F)(F)F)CCC1)C2 [Example 4, 10-chloro-9-(3-methoxypropoxy)-2-oxo-6-(1-(trifluoromethyl)cyclobutyl)-6,7-dihydro-2H-pyrido[2,1-a]phthalazine-3-carboxylic acid] | 11.2 | – | 8100
COCCCOc1cc2c(cc1Cl)-c1cc(=O)c(C(=O)O)cn1N(C13CC(C1)C3)C2 [Example 5, 6-(bicyclo[1.1.1]pentan-1-yl)-10-chloro-9-(3-methoxypropoxy)-2-oxo-6,7-dihydro-2H-pyrido[2,1-a]phthalazine-3-carboxylic acid] | 4 | – | > 10000
COCCCOc1cc2c(cc1Cl)-c1cc(=O)c(C(=O)O)cn1N(C1(C)CC1)C2 [Example 6, 10-chloro-9-(3-methoxypropoxy)-6-(1-methylcyclopropyl)-2-oxo-6,7-dihydro-2H-pyrido[2,1-a]phthalazine-3-carboxylic acid] | – | – | > 10000
COCCCOc1cc2c(cc1Cl)-c1cc(=O)c(C(=O)O)cn1N(C1(C)CCC1)C2 [Example 7, 10-chloro-9-(3-methoxypropoxy)-6-(1-methylcyclobutyl)-2-oxo-6,7-dihydro-2H-pyrido[2,1-a]phthalazine-3-carboxylic acid] | 6.8 | – | > 10000
COCCCOc1cc2c(cc1Cl)-c1cc(=O)c(C(=O)O)cn1N(C(C)(C)COC)C2 [Example 8, 10-chloro-6-(1-methoxy-2-methylpropan-2-yl)-9-(3-methoxypropoxy)-2-oxo-6,7-dihydro-2H-pyrido[2,1-a]phthalazine-3-carboxylic acid] | 11 | – | > 10000
COCCCOc1cc2c(cc1Cl)-c1cc(=O)c(C(=O)O)cn1N(C(C)(C)C(F)(F)F)C2 [Example 9, 10-chloro-9-(3-methoxypropoxy)-2-oxo-6-(1,1,1-trifluoro-2-methylpropan-2-yl)-6,7-dihydro-2H-pyrido[2,1-a]phthalazine-3-carboxylic acid] | – | – | > 10000
COCCCOc1cc2c(cc1OC)-c1cc(=O)c(C(=O)O)cn1N(C(C)(C)C)C2 [Example 10, 6-(tert-butyl)-10-methoxy-9-(3-methoxypropoxy)-2-oxo-6,7-dihydro-2H-pyrido[2,1-a]phthalazine-3-carboxylic acid] | 1.6 | – | > 10000
COCCCOc1cc2c(cc1OC)-c1cc(=O)c(C(=O)O)cn1N(C(C)(C)COC)C2 [Example 11, 10-methoxy-6-(1-methoxy-2-methylpropan-2-yl)-9-(3-methoxypropoxy)-2-oxo-6,7-dihydro-2H-pyrido[2,1-a]phthalazine-3-carboxylic acid] | – | – | > 10000
[2H]C([2H])([2H])OCCCOc1cc2c(cc1Cl)-c1cc(=O)c(C(=O)O)cn1N(C(C)(C)C)C2 [Example 12, 6-(tert-butyl)-10-chloro-9-(3-(methoxy-d3)propoxy)-2-oxo-6,7-dihydro-2H-pyrido[2,1-a]phthalazine-3-carboxylic acid] | 7.7 | – | 9300
CC(C)(C)N1Cc2cc(OCCOCC(F)(F)F)c(Cl)cc2-c2cc(=O)c(C(=O)O)cn21 [Example 13, 6-(tert-butyl)-10-chloro-2-oxo-9-(2-(2,2,2-trifluoroethoxy)ethoxy)-6,7-dihydro-2H-pyrido[2,1-a]phthalazine-3-carboxylic acid] | 58.8 | – | 5200
COCCCOc1cc2c(cc1OC)-c1cc(=O)c(C(=O)O)cn1N(C1(C(F)(F)F)CC1)C2 [Example 14, 10-methoxy-9-(3-methoxypropoxy)-2-oxo-6-(1-(trifluoromethyl)cyclopropyl)-6,7-dihydro-2H-pyrido[2,1-a]phthalazine-3-carboxylic acid] | 8.7 | – | > 10000
COCCCOc1cc2c(cc1OC)-c1cc(=O)c(C(=O)O)cn1N(C(C)(C)C(F)(F)F)C2 [Example 15, 10-methoxy-9-(3-methoxypropoxy)-2-oxo-6-(1,1,1-trifluoro-2-methylpropan-2-yl)-6,7-dihydro-2H-pyrido[2,1-a]phthalazine-3-carboxylic acid] | 25.3 | – | > 10000
COCCCOc1cc2c(cc1Cl)-c1cc(=O)c(C(=O)O)cn1N(C(C)(C)CO)C2 [Example 16, 10-chloro-6-(1-hydroxy-2-methylpropan-2-yl)-9-(3-methoxypropoxy)-2-oxo-6,7-dihydro-2H-pyrido[2,1-a]phthalazine-3-carboxylic acid] | 66.9 | – | > 10000
CCC(C)(C)N1Cc2cc(OCCCOC)c(Cl)cc2-c2cc(=O)c(C(=O)O)cn21 [Example 17, 10-chloro-9-(3-methoxypropoxy)-2-oxo-6-(tert-pentyl)-6,7-dihydro-2H-pyrido[2,1-a]phthalazine-3-carboxylic acid] | 29.5 | – | > 10000
COCCCOc1cc2c(cc1Cl)-c1cc(=O)c(C(=O)O)cn1N(CC(C)(C)C)C2 [Example 18, 10-chloro-9-(3-methoxypropoxy)-6-neopentyl-2-oxo-6,7-dihydro-2H-pyrido[2,1-a]phthalazine-3-carboxylic acid] | 168 | – | > 10000
COCCCOc1cc2c(cc1Cl)-c1cc(=O)c(C(=O)O)cn1N(C1(C)CC(F)(F)C1)C2 [Example 19, 10-chloro-6-(3,3-difluoro-1-methylcyclobutyl)-9-(3-methoxypropoxy)-2-oxo-6,7-dihydro-2H-pyrido[2,1-a]phthalazine-3-carboxylic acid] | 99.2 | – | > 10000
